Measured values: patent US10428083B2, “Heterocyclylmethyl-thienouracile as antagonists of the adenosine-A2B-receptor” (BAYER PHARMA AKTIENGESELLSCHAFT, priority 2015, dated 2019)

Target: human adenosine A2b receptor (Homo sapiens (Human), UniProt P29275)
Experiment: Cellular in vitro reporter gene test for A2b receptor activity (CHO-K1, CRE-luciferase, NECA stimulation)
Format: cell-based
Conditions: recombinant CHO-K1 cell line, CRE-luciferase reporter, antagonism of EC50 concentration of NECA; in some cases means of several determinations, rounded to two significant figures; read-out: A2b receptor IC50
In short: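 CHO-K1 cells with CRE-driven luciferase; antagonists co-incubated with NECA at its EC50, determined in a pre-experiment on each test day. Luciferase read by luminescence 3 h after NECA addition.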

human adenosine A2b receptor, sequence (P29275 whole entry): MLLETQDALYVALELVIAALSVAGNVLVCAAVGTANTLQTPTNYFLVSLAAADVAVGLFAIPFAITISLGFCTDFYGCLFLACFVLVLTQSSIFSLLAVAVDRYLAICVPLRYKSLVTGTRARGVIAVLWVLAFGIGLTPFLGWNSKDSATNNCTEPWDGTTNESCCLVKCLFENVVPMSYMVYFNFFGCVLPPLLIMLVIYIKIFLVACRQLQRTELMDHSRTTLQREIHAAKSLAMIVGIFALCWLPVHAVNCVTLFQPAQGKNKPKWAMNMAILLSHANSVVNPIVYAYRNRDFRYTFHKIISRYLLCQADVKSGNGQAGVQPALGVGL

| Compound | IC50 [µM] |
| --- | --- |
| Cc1c(CN2CCNC(=O)C2=O)sc2c1c(=O)n(CC(F)F)c(=O)n2CCC(F)(F)F [Example 125, 3-(2,2-Difluoroethyl)-6-[(2,3-dioxopiperazin-1-yl)methyl]-5-methyl-1-(3,3,3-trifluoropropyl)thieno[2,3-d]pyrimidine-2,4(1H,3H)-dione] | 0.0088 |
| CCn1c(=O)c2c(C)c(CN3CCCS3(=O)=O)sc2n(CCC(F)(F)F)c1=O [Example 16, 6-[(1,1-Dioxido-1,2-thiazolidin-2-yl)methyl]-3-ethyl-5-methyl-1-(3,3,3-trifluoropropyl)thieno[2,3-d]pyrimidine-2,4(1H,3H)-dione] | 0.0027 |
| COC(C)(C)Cn1c(=O)c2c(C)c(CN3CCNC3=S)sc2n(CCC(F)(F)F)c1=O [Example 170, 3-(2-Methoxy-2-methylpropyl)-5-methyl-6-[(2-thioxoimidazolidin-1-yl)methyl]-1-(3,3,3-trifluoropropyl)thieno[2,3-d]pyrimidine-2,4(1H,3H)-dione] | 0.0044 |
| CCn1c(=O)c2c(C)c(Cn3cc[nH]c3=O)sc2n(CC2CCCO2)c1=O (single isomer, unassigned) [Example 244, 3-Ethyl-5-methyl-6-[(2-oxo-2,3-dihydro-1H-imidazol-1-yl)methyl]-1-(tetrahydrofuran-2-ylmethyl)thieno[2,3-d]pyrimidine-2,4(1H,3H)-dione] | 0.013 |
| CCn1c(=O)c2c(C)c(CN3CCNS3(=O)=O)sc2n(CCC(F)(F)F)c1=O [Example 27, 6-[(1,1-Dioxido-1,2,5-thiadiazolidin-2-yl)methyl]-3-ethyl-5-methyl-1-(3,3,3-trifluoropropyl)thieno[2,3-d]pyrimidine-2,4(1H,3H)-dione] | 0.0027 |
| CCn1c(=O)c2c(C)c(CN3CCNC3=O)sc2n(CC2CCOC2)c1=O (single isomer, unassigned; enantiomer 1) [Example 74, 3-Ethyl-5-methyl-6-[(2-oxoimidazolidin-1-yl)methyl]-1-(tetrahydrofuran-3-ylmethyl)thieno[2,3-d]pyrimidine-2,4(1H,3H)-dione (Enantiomer 1)] | 0.036 |
| COCCn1c(=O)c2c(C)c(CN3CCNC3=O)sc2n(CCC(F)(F)F)c1=O [Example 229, 3-(2-Methoxyethyl)-5-methyl-6-[(2-oxoimidazolidin-1-yl)methyl]-1-(3,3,3-trifluoropropyl)thieno[2,3-d]pyrimidine-2,4(1H,3H)-dione] | 0.004 |
| COCCn1c(=O)c2c(C)c(CN3CCNC3=S)sc2n(CCC(F)(F)F)c1=O [Example 167, 3-(2-Methoxyethyl)-5-methyl-6-[(2-thioxoimidazolidin-1-yl)methyl]-1-(3,3,3-trifluoropropyl)thieno[2,3-d]pyrimidine-2,4(1H,3H)-dione] | 0.0012 |
| COCCn1c(=O)n(CC(C)(C)F)c(=O)c2c(C)c(CN3CCNC3=O)sc21 [Example 226, 3-(2-Fluoro-2-methylpropyl)-1-(2-methoxyethyl)-5-methyl-6-[(2-oxoimidazolidin-1-yl)methyl]thieno[2,3-d]pyrimidine-2,4(1H,3H)-dione] | 0.036 |
| CCn1c(=O)c2c(C)c(CN3CCN(C(C)C)C3=S)sc2n(CC2CCCO2)c1=O (racemic) [Example 175, 3-Ethyl-6-[(3-isopropyl-2-thioxoimidazolidin-1-yl)methyl]-5-methyl-1-(tetrahydrofuran-2-ylmethyl)thieno[2,3-d]pyrimidine-2,4(1H,3H)-dione] | 0.053 |

Next, values leading:

| IC50 [µM] | Compound |
| --- | --- |
| 0.25 | Cc1c(CN2CCNC(=O)C2=O)sc2c1c(=O)n(CC(F)(F)F)c(=O)n2CC1CCCO1 (racemic) [Example 487, 6-[(2,3-Dioxopiperazin-1-yl)methyl]-5-methyl-1-(tetrahydrofuran-2-ylmethyl)-3-(2,2,2-trifluoroethyl)thieno[2,3-d]pyrimidine-2,4(1H,3H)-dione] |
| 0.00044 | COCCn1c(=O)n(CCC=C(C)C)c(=O)c2c(C)c(CN3CCNC3=O)sc21 [Example 320, 1-(2-Methoxyethyl)-5-methyl-3-(4-methylpent-3-en-1-yl)-6-[(2-oxoimidazolidin-1-yl)methyl]thieno[2,3-d]pyrimidine-2,4(1H,3H)-dione] |
| 0.0041 | CCn1c(=O)c2c(C)c(Cn3c(C)c[nH]c3=O)sc2n(CCOC)c1=O [Example 252] |
| 0.12 | CCn1c(=O)c2c(C)c(Cn3nc[nH]c3=O)sc2n(CCCOC)c1=O [Example 354, 3-Ethyl-1-(3-methoxypropyl)-5-methyl-6-[(5-oxo-4,5-dihydro-1H-1,2,4-triazol-1-yl)methyl]thieno[2,3-d]pyrimidine-2,4(1H,3H)-dione] |
| 0.017 | COCCn1c(=O)c2c(C)c(Cn3cc[nH]c3=O)sc2n(CCOC)c1=O [Example 345, 1,3-Bis(2-methoxyethyl)-5-methyl-6-[(2-oxo-2,3-dihydro-1H-imidazol-1-yl)methyl]thieno[2,3-d]pyrimidine-2,4(1H,3H)-dione] |
| 0.011 | Cc1c(CN2CCNC2=NC#N)sc2c1c(=O)n(CC(C)(C)C)c(=O)n2CCCF [Example 444, [1-{[3-(2,2-Dimethylpropyl)-1-(3-fluoropropyl)-5-methyl-2,4-dioxo-1,2,3,4-tetrahydrothieno[2,3-d]pyrimidin-6-yl]methyl}imidazolidin-2-ylidene]cyanamide] |
| 0.0087 | Cc1c(CN2CCN(C)C2=O)sc2c1c(=O)n(CC(F)(F)F)c(=O)n2CCC(F)(F)F [Example 336, 5-Methyl-6-[(3-methyl-2-oxoimidazolidin-1-yl)methyl]-3-(2,2,2-trifluoroethyl)-1-(3,3,3-trifluoropropyl)thieno[2,3-d]pyrimidine-2,4(1H,3H)-dione] |
| 0.0046 | COC(C)Cn1c(=O)c2c(C)c(CN3CCNC3=O)sc2n(CCC(F)(F)F)c1=O (single isomer, unassigned) [Example 413, 3-(2-Methoxypropyl)-5-methyl-6-[(2-oxoimidazolidin-1-yl)methyl]-1-(3,3,3-trifluoropropyl)thieno[2,3-d]pyrimidine-2,4(1H,3H)-dione] |
| 0.019 | COCCn1c(=O)c2c(C)c(CN3CCNC3=NC#N)sc2n(CCOC)c1=O [Example 363, [1-{[1,3-Bis(2-methoxyethyl)-5-methyl-2,4-dioxo-1,2,3,4-tetrahydrothieno[2,3-d]pyrimidin-6-yl]methyl}imidazolidin-2-ylidene]cyanamide] |
| 0.041 | Cc1c(CN2CCNC(=O)C2=O)sc2c1c(=O)n(C(C)C)c(=O)n2CCC(F)(F)F [Example 478, 6-[(2,3-Dioxopiperazin-1-yl)methyl]-3-isopropyl-5-methyl-1-(3,3,3-trifluoropropyl)thieno[2,3-d]pyrimidine-2,4(1H,3H)-dione] |
| 0.056 | COCCn1c(=O)c2c(C)c(Cn3cc[nH]c3=O)sc2n(CC2CCCO2)c1=O (single isomer, unassigned) [Example 347, 3-(2-Methoxyethyl)-5-methyl-6-[(2-oxo-2,3-dihydro-1H-imidazol-1-yl)methyl]-1-(tetrahydrofuran-2-ylmethyl)thieno[2,3-d]pyrimidine-2,4(1H,3H)-dione] |
| 0.056 | COCCn1c(=O)c2c(C)c(CN3CCNC3=NC(=O)OC)sc2n(CC2CCCO2)c1=O (single isomer, unassigned) [Example 392, Methyl [1-f{[3-(2-methoxyethyl)-5-methyl-2,4-dioxo-1-(tetrahydrofuran-2-ylmethyl)-1,2,3,4-tetrahydrothieno[2,3-d]pyrimidin-6-yl]methyl}imidazolidin-2-ylidene]carbamate] |
